# In patent US20230218654A1, “COMPOSITIONS AND METHODS FOR TREATING HYPERGLYCEMIA IN TYPE-2 DIABETES” (The Board of Regents of the university of Oklahoma, priority 2020, published 2023):
# Entries after “also recorded” stand apart in the source; their conditions may differ.
# Experiments:
# male C57BL/6J mice = assay: Glucose tolerance test (GTT); assay type: in vivo; details: 60 mg/kg SQ twice; for glucose tolerance in GTT: 6 h fast
# Method: On the day of testing, mice were fasted for 6 h (from 9 am to 3 pm). Mice were then given 2 g/kg D-glucose via IP injection. Blood glucose was measured with an UltraTouch glucometer in time course over a 120-minute period.
# Mice were treated with 2 doses of MLN4924 as described. After the second injection at 9 am, mice were fasted for 6 h from 9 am to 3 pm. Mice were injected intraperitoneally […] for PTT, and 0.5 U/kg insulin for ITT. Blood glucose was measured with a OneTouch Ultra glucose meter.
# AML12 mouse hepatocytes = assay: Western blot of insulin signaling and cullin neddylation in AML12 cells; assay type: cell-based
# Method: MLN4924 increases IRS protein and AKT activation in the presence of insulin. Mouse AML 12 hepatocytes were serum starved for 16 h. Cells were then pre-treated with MLN4924 for 1 h followed by 100 nM insulin stimulation for 4 h. Western blot was then performed to evaluate insulin signaling activation.
# AML 12 cells were serum starved for 16 h. Cells were then pre-treated with 500 nM MLN4924 or vehicle (DMSO) for 1 h, followed by 100 µg/ml cycloheximide (CHX) and 100 nM insulin treatment.
# AML12 cells were serum starved for 16 h. Cells were then pre-treated with 500 nM MLN4924 for 1 h followed by 100 nM insulin stimulation in time course.
# FIG. 18A is a Western blot analysis showing that MLN4924 enhances hepatocyte insulin responsiveness (signaling) by delaying feedback IRS degradation. AML12 cells were serum starved for 16 h. Cells were then pre-treated with MLN4924 for 1 h followed by insulin stimulation for 4 h.
# FIG. 18D is a Western blot analysis of insulin signaling in AML12 cells serum starved for 16 h, then pre-treated with 500 nM MLN4924 for 1 h followed by 100 nM insulin stimulation in time course.
# FIG. 18E is a Western blot analysis of AML12 cells serum starved for 16 h then pre-treated with 500 nM MLN4924 or vehicle (DMSO) for 1 h, followed by 100 µg/ml cycloheximide (CHX) and 100 nM insulin treatment. Cells were collected at the indicated time for Western blotting.
# FIG. 18F is a Western blot analysis of insulin signaling in AML12 cells serum starved for 16 h then pre-treated with 100 nM rapamycin and 500 nM MLN4924 as indicated for 1 h followed by additional 2 h incubation in the presence or absence of 100 nM insulin. Blots are representative of 2-4 independent experiments.
# FIG. 20 is a Western blot analysis showing that MLN4924 enhances hepatocyte insulin responsiveness in cells treated with wortmannin by delaying feedback IRS degradation (related to FIG. 18A). AML12 cells were serum starved for 16 h then pre-treated with 1 µM wortmannin (Wort) and 500 nM MLN4924 as indicated for 1 h followed by additional 2 h incubation in the presence or absence of 100 nM insulin. Blots are representative of 2 independent experiments.
# FIG. 21 is a Western blot analysis showing that MLN4924 enhances hepatocyte insulin responsiveness in cells treated with Torin 1 by delaying feedback IRS degradation (related to FIG. 18A). AML12 cells were serum starved for 16 h then pre-treated with 250 nM Torin1 and 500 nM MLN4924 as indicated for 1 h followed by additional 2 h incubation in the presence or absence of 100 nM insulin. Blots are representative of 2 independent experiments.
# MLN4924 and TAS4464 were purchased from MedChemExpress (MCE, Monmouth Junction, NJ). For cell treatment, MLN4924 and TAS4464 were dissolved in DMSO. Cells were serum starved overnight and then treated with MLN4924, TAS4464 and/or insulin as indicated. For injection in mice, MLN4924 and TAS4464 were first dissolved in DMSO, which was further suspended in 10% (2-hydroxypropyl)-β-cyclodextrin (Sigma, St. Louis, MO). The final solution contains 1% DMSO. The subcutaneous injection volume is 200 µl/mouse.
# Protein lysates were prepared in RIPA buffer containing 1% SDS and protease inhibitors on ice for 1 h followed by brief sonication. After centrifugation, supernatant was used for SDS-PAGE and immunoblotting.
# AML12 cells were a generous gift from Dr. Yanqiao Zhang (Northeast Ohio Medical University). AML12 cells were cultured in DMEM medium supplemented with a mixture of insulin-transferrin-selenium (#41400-045, ThermoFisher, Waltham, MA). For experiments, cells were cultured in serum free medium overnight before various treatments were initiated. The siGENOME SMARTpool siRNA and siControl were purchased from Dharmacon, Inc. (Lafayette, CO). The siRNA was transfected with Lipofectamine RNAiMAX reagent in a final concentration of 25 nM recommended by the manufacturer. […]
# [1] = system: differentiated C2C12 myocytes; assay: Western blot of insulin signaling in differentiated C2C12 myocytes; assay type: cell-based; details: 500 nM, 1 h, then 100 nM insulin in time course
# Method: Differentiated C2C12 myocytes were pre-treated with MLN4924 (500 nM) for 1 h followed by 100 nM insulin treatment in time course.
# C2C12 myoblast cells were cultured in DMEM medium supplemented with 10% FBS. When cells grow to 60% confluency, differentiation into myocytes was induced by culturing cells in DMEM supplemented with 2% horse serum for 4-6 days. Cells were then serum starved overnight and treated with 500 nM MLN4924 or DMSO for 6 h and then stimulated with 100 nM insulin for 1 hour as indicated. Glucose uptake was measured with a Glucose uptake Glo^tm assay kit that was purchased from Promega (Madison, WI).
# Skeletal muscle is a major organ that is responsible for the majority of the blood glucose clearance during postprandial state. Insulin resistance in muscle causes impaired insulin-stimulated glucose uptake that contributes to hyperglycemia in diabetes. To determine if CRL inhibition in muscle cells may contribute to the insulin sensitizing and glucose lowering effect in obese mice, differentiated C2C12 myocytes were treated with MLN4924 to inhibit CRLs (FIG. 8A). […] To further determine if MLN4924 treatment increases muscle glucose clearance, a glucose tolerance test (GTT) was performed, in which reduction of glucose excursion is mainly attributed to blood glucose clearance by muscle.
# [2] = insulin stimulated, MLN4924 pre-treatment 1 h, insulin 4 h
structure (smiles),measurement,setting,value
"NS(=O)(=O)OC[C@@H]1C[C@@H](n2ccc3c(N[C@H]4CCc5ccccc54)ncnc32)C[C@@H]1O [MLN4924, ((1S,2S,4R)-4-(4-((1S)-2,3-dihydro-1H-inden-1-ylamino)-7H-pyrrolo[2,3-d]pyrimidin-7-yl)-2-hydroxycyclopentyl) methyl sulfamate]",peak blood glucose at 30 minutes post glucose challenge,male C57BL/6J mice; vs vehicle,significantly lower
same,glucose tolerance in GTT,male C57BL/6J mice; 3-week WD-fed mice,significantly improved glucose tolerance
same,basal glucose levels after 6 h fasting,male C57BL/6J mice; chow condition,did not significantly decrease basal glucose levels
same,glucose tolerance in GTT,"male C57BL/6J mice; chow-fed mice, 60 mg/kg",significantly improved glucose tolerance; also recorded: improved overall glucose tolerance
same,IRS protein in the presence of rapamycin,"AML12 mouse hepatocytes; 500 nM MLN4924 + 100 nM rapamycin, 100 nM insulin",did not further increase IRS protein
same,IRS1 S307 phosphorylation,"AML12 mouse hepatocytes; 500 nM, 100 nM insulin time course",also higher
same,"insulin signaling desensitization (IRS1(Y612), AKT(S473))","AML12 mouse hepatocytes; 500 nM, 1 h, then 100 nM insulin in time course",significantly delayed cellular insulin desensitization; also recorded: significantly delayed insulin signaling desensitization
same,insulin-induced IRS degradation,"AML12 mouse hepatocytes; 500 nM, 100 µg/ml cycloheximide (CHX) and 100 nM insulin",significantly delayed
same,further MLN4924-mediated IRS enrichment and insulin sensitization,"AML12 mouse hepatocytes; Cul1 or Cul3 knockdown cells, 500 nM",limited but not fully abolished
same,AKT S473 phosphorylation,AML12 mouse hepatocytes; [2],increased AKT S473 phosphorylation
same,IR (Y1150) phosphorylation,AML12 mouse hepatocytes; [2],but not IR (Y1150) phosphorylation
same,IRS1(Y612) phosphorylation,AML12 mouse hepatocytes; [2],enhanced IRS1(Y612) phosphorylation
same,total IRS1 and IRS2 protein,AML12 mouse hepatocytes; [2],dose-dependently increased total IRS1 and IRS2 protein
same,further IRS protein stabilization caused by MLN4924,"AML12 mouse hepatocytes; simultaneous knockdown of Cul1 and Cul3, 500 nM",largely abolished
same,IRS1 and IRS2 degradation upon insulin stimulation,[1],delayed IRS1 and IRS2 degradation
same,insulin activation of AKT phosphorylation,[1],increased insulin activation of AKT phosphorylation
